Results taken from the NIST ThermoML archive (doi:10.1016/j.fluid.2015.03.016).
Values joined by “and” are separate entries in the source; they are usually repeats but may differ in a detail not shown here. Equal entries are not always repeated. Numbers after ± are expanded uncertainties.

Details: Liquid, Vibrating wire viscometry

## CCCCOC(=O)CCCCC(=O)OCCCC [dibutyl hexanedioate]
333.15 K, 5090 kPa
  viscosity: 2.366 ± 0.04 mPa·s
333.15 K, 5100 kPa
  viscosity: 2.361 ± 0.04 mPa·s and 2.362 ± 0.04 mPa·s
333.15 K, 5210 kPa
  viscosity: 2.361 ± 0.044 mPa·s and 2.365 ± 0.043 mPa·s
333.15 K, 5220 kPa
  viscosity: 2.366 ± 0.043 mPa·s
333.15 K, 7790 kPa
  viscosity: 2.42 ± 0.041 mPa·s and 2.421 ± 0.041 mPa·s
333.15 K, 7800 kPa
  viscosity: 2.421 ± 0.041 mPa·s
333.15 K, 10100 kPa
  viscosity: 2.493 ± 0.042 mPa·s
333.15 K, 10120 kPa
  viscosity: 2.495 ± 0.042 mPa·s
333.15 K, 10130 kPa
  viscosity: 2.495 ± 0.042 mPa·s
333.15 K, 10160 kPa
  viscosity: 2.493 ± 0.042 mPa·s
333.15 K, 14860 kPa
  viscosity: 2.621 ± 0.053 mPa·s
333.15 K, 15150 kPa
  viscosity: 2.62 ± 0.053 mPa·s
333.15 K, 15240 kPa
  viscosity: 2.619 ± 0.049 mPa·s
333.15 K, 15260 kPa
  viscosity: 2.625 ± 0.048 mPa·s
333.15 K, 20250 kPa
  viscosity: 2.763 ± 0.046 mPa·s
333.15 K, 20260 kPa
  viscosity: 2.76 ± 0.046 mPa·s
333.15 K, 20270 kPa
  viscosity: 2.761 ± 0.046 mPa·s
333.15 K, 20290 kPa
  viscosity: 2.76 ± 0.046 mPa·s
333.15 K, 29840 kPa
  viscosity: 3.05 ± 0.058 mPa·s
333.15 K, 29880 kPa
  viscosity: 3.043 ± 0.063 mPa·s
333.15 K, 30130 kPa
  viscosity: 3.05 ± 0.064 mPa·s
333.15 K, 30150 kPa
  viscosity: 3.042 ± 0.061 mPa·s
333.15 K, 30230 kPa
  viscosity: 3.047 ± 0.056 mPa·s
333.15 K, 39970 kPa
  viscosity: 3.331 ± 0.055 mPa·s
333.15 K, 40020 kPa
  viscosity: 3.332 ± 0.055 mPa·s
333.15 K, 40070 kPa
  viscosity: 3.33 ± 0.055 mPa·s
333.15 K, 40080 kPa
  viscosity: 3.335 ± 0.055 mPa·s
333.15 K, 49990 kPa
  viscosity: 3.644 ± 0.061 mPa·s
333.15 K, 50000 kPa
  viscosity: 3.638 ± 0.06 mPa·s and 3.636 ± 0.06 mPa·s and 3.632 ± 0.06 mPa·s
333.15 K, 61450 kPa
  viscosity: 4.065 ± 0.07 mPa·s
333.15 K, 61480 kPa
  viscosity: 4.064 ± 0.07 mPa·s
333.15 K, 61600 kPa
  viscosity: 4.055 ± 0.067 mPa·s
333.15 K, 61660 kPa
  viscosity: 4.057 ± 0.069 mPa·s
333.16 K, 2490 kPa
  viscosity: 2.298 ± 0.039 mPa·s
333.16 K, 2580 kPa
  viscosity: 2.299 ± 0.039 mPa·s
333.16 K, 5220 kPa
  viscosity: 2.361 ± 0.044 mPa·s
333.16 K, 7780 kPa
  viscosity: 2.422 ± 0.041 mPa·s
343.14 K, 20120 kPa
  viscosity: 2.335 ± 0.039 mPa·s and 2.332 ± 0.039 mPa·s
343.14 K, 39830 kPa
  viscosity: 2.803 ± 0.047 mPa·s
343.14 K, 39840 kPa
  viscosity: 2.809 ± 0.047 mPa·s
343.14 K, 39860 kPa
  viscosity: 2.807 ± 0.047 mPa·s
343.14 K, 39870 kPa
  viscosity: 2.804 ± 0.047 mPa·s
343.14 K, 39880 kPa
  viscosity: 2.81 ± 0.047 mPa·s
343.14 K, 65480 kPa
  viscosity: 3.489 ± 0.058 mPa·s
343.14 K, 65500 kPa
  viscosity: 3.484 ± 0.058 mPa·s
343.15 K, 1100 kPa
  viscosity: 1.917 ± 0.04 mPa·s and 1.916 ± 0.04 mPa·s
343.15 K, 1170 kPa
  viscosity: 1.915 ± 0.032 mPa·s
343.15 K, 1240 kPa
  viscosity: 1.914 ± 0.032 mPa·s
343.15 K, 1260 kPa
  viscosity: 1.918 ± 0.035 mPa·s and 1.915 ± 0.036 mPa·s
343.15 K, 2480 kPa
  viscosity: 1.949 ± 0.033 mPa·s
343.15 K, 2500 kPa
  viscosity: 1.945 ± 0.033 mPa·s and 1.947 ± 0.033 mPa·s
343.15 K, 2520 kPa
  viscosity: 1.948 ± 0.033 mPa·s
343.15 K, 2530 kPa
  viscosity: 1.95 ± 0.033 mPa·s
343.15 K, 2580 kPa
  viscosity: 1.946 ± 0.033 mPa·s
343.15 K, 4960 kPa
  viscosity: 1.993 ± 0.034 mPa·s
343.15 K, 4970 kPa
  viscosity: 1.994 ± 0.034 mPa·s
343.15 K, 4980 kPa
  viscosity: 1.992 ± 0.034 mPa·s
343.15 K, 4990 kPa
  viscosity: 1.989 ± 0.034 mPa·s
343.15 K, 7500 kPa
  viscosity: 2.054 ± 0.035 mPa·s
343.15 K, 7510 kPa
  viscosity: 2.057 ± 0.035 mPa·s and 2.059 ± 0.035 mPa·s
343.15 K, 7520 kPa
  viscosity: 2.056 ± 0.035 mPa·s
343.15 K, 10030 kPa
  viscosity: 2.118 ± 0.036 mPa·s
343.15 K, 10040 kPa
  viscosity: 2.117 ± 0.036 mPa·s and 2.119 ± 0.036 mPa·s
343.15 K, 10090 kPa
  viscosity: 2.117 ± 0.036 mPa·s
343.15 K, 15220 kPa
  viscosity: 2.224 ± 0.037 mPa·s
343.15 K, 15240 kPa
  viscosity: 2.222 ± 0.037 mPa·s
343.15 K, 15260 kPa
  viscosity: 2.221 ± 0.037 mPa·s
343.15 K, 20040 kPa
  viscosity: 2.334 ± 0.048 mPa·s
343.15 K, 20160 kPa
  viscosity: 2.337 ± 0.039 mPa·s
343.15 K, 20210 kPa
  viscosity: 2.335 ± 0.057 mPa·s
343.15 K, 20240 kPa
  viscosity: 2.332 ± 0.047 mPa·s
343.15 K, 20270 kPa
  viscosity: 2.331 ± 0.042 mPa·s
343.15 K, 20280 kPa
  viscosity: 2.335 ± 0.042 mPa·s
343.15 K, 30090 kPa
  viscosity: 2.562 ± 0.043 mPa·s
343.15 K, 30130 kPa
  viscosity: 2.561 ± 0.043 mPa·s
343.15 K, 30140 kPa
  viscosity: 2.566 ± 0.043 mPa·s
343.15 K, 30150 kPa
  viscosity: 2.561 ± 0.043 mPa·s and 2.564 ± 0.043 mPa·s
343.15 K, 30160 kPa
  viscosity: 2.566 ± 0.043 mPa·s
343.15 K, 39830 kPa
  viscosity: 2.806 ± 0.047 mPa·s
343.15 K, 50080 kPa
  viscosity: 3.08 ± 0.051 mPa·s and 3.083 ± 0.051 mPa·s
343.15 K, 65610 kPa
  viscosity: 3.482 ± 0.058 mPa·s
343.15 K, 65620 kPa
  viscosity: 3.49 ± 0.058 mPa·s
358.15 K, 2510 kPa
  viscosity: 1.559 ± 0.026 mPa·s
358.15 K, 2520 kPa
  viscosity: 1.559 ± 0.026 mPa·s and 1.56 ± 0.026 mPa·s
358.15 K, 5050 kPa
  viscosity: 1.594 ± 0.037 mPa·s and 1.593 ± 0.037 mPa·s
358.15 K, 5060 kPa
  viscosity: 1.594 ± 0.038 mPa·s and 1.595 ± 0.038 mPa·s
358.15 K, 5240 kPa
  viscosity: 1.601 ± 0.036 mPa·s
358.15 K, 9930 kPa
  viscosity: 1.688 ± 0.029 mPa·s
358.15 K, 10010 kPa
  viscosity: 1.69 ± 0.029 mPa·s
358.15 K, 15060 kPa
  viscosity: 1.769 ± 0.03 mPa·s and 1.766 ± 0.03 mPa·s and 1.764 ± 0.03 mPa·s
358.15 K, 15100 kPa
  viscosity: 1.768 ± 0.03 mPa·s
358.15 K, 15130 kPa
  viscosity: 1.765 ± 0.03 mPa·s
358.15 K, 20130 kPa
  viscosity: 1.863 ± 0.031 mPa·s
358.15 K, 30280 kPa
  viscosity: 2.045 ± 0.034 mPa·s
358.15 K, 30290 kPa
  viscosity: 2.042 ± 0.034 mPa·s and 2.044 ± 0.034 mPa·s
358.15 K, 30300 kPa
  viscosity: 2.041 ± 0.034 mPa·s
358.15 K, 30310 kPa
  viscosity: 2.043 ± 0.034 mPa·s
358.15 K, 30320 kPa
  viscosity: 2.046 ± 0.034 mPa·s
358.15 K, 39960 kPa
  viscosity: 2.223 ± 0.037 mPa·s
358.15 K, 39990 kPa
  viscosity: 2.219 ± 0.037 mPa·s
358.15 K, 40010 kPa
  viscosity: 2.219 ± 0.037 mPa·s
358.15 K, 40040 kPa
  viscosity: 2.222 ± 0.037 mPa·s
358.15 K, 40060 kPa
  viscosity: 2.219 ± 0.037 mPa·s
358.16 K, 1080 kPa
  viscosity: 1.521 ± 0.026 mPa·s
358.16 K, 1090 kPa
  viscosity: 1.524 ± 0.026 mPa·s and 1.523 ± 0.026 mPa·s and 1.521 ± 0.026 mPa·s
358.16 K, 2510 kPa
  viscosity: 1.559 ± 0.026 mPa·s
358.16 K, 2540 kPa
  viscosity: 1.558 ± 0.026 mPa·s
358.16 K, 5180 kPa
  viscosity: 1.6 ± 0.027 mPa·s
358.16 K, 5200 kPa
  viscosity: 1.597 ± 0.027 mPa·s
358.16 K, 5240 kPa
  viscosity: 1.599 ± 0.037 mPa·s
358.16 K, 7560 kPa
  viscosity: 1.645 ± 0.028 mPa·s and 1.644 ± 0.028 mPa·s and 1.643 ± 0.028 mPa·s
358.16 K, 20120 kPa
  viscosity: 1.868 ± 0.031 mPa·s and 1.866 ± 0.031 mPa·s
358.16 K, 20130 kPa
  viscosity: 1.868 ± 0.031 mPa·s
358.16 K, 20160 kPa
  viscosity: 1.863 ± 0.031 mPa·s
358.16 K, 40080 kPa
  viscosity: 2.223 ± 0.037 mPa·s
358.16 K, 50160 kPa
  viscosity: 2.426 ± 0.041 mPa·s and 2.429 ± 0.041 mPa·s
358.16 K, 50170 kPa
  viscosity: 2.424 ± 0.04 mPa·s and 2.427 ± 0.041 mPa·s
358.16 K, 65550 kPa
  viscosity: 2.761 ± 0.046 mPa·s and 2.757 ± 0.046 mPa·s and 2.758 ± 0.046 mPa·s
373.14 K, 2490 kPa
  viscosity: 1.265 ± 0.022 mPa·s
373.14 K, 10000 kPa
  viscosity: 1.376 ± 0.024 mPa·s and 1.374 ± 0.023 mPa·s
373.14 K, 15040 kPa
  viscosity: 1.442 ± 0.025 mPa·s
373.14 K, 15050 kPa
  viscosity: 1.443 ± 0.025 mPa·s
373.14 K, 29940 kPa
  viscosity: 1.668 ± 0.028 mPa·s
373.15 K, 1060 kPa
  viscosity: 1.253 ± 0.021 mPa·s
373.15 K, 1120 kPa
  viscosity: 1.255 ± 0.021 mPa·s
373.15 K, 1160 kPa
  viscosity: 1.254 ± 0.021 mPa·s
373.15 K, 2590 kPa
  viscosity: 1.264 ± 0.022 mPa·s
373.15 K, 2600 kPa
  viscosity: 1.264 ± 0.022 mPa·s
373.15 K, 5080 kPa
  viscosity: 1.302 ± 0.022 mPa·s and 1.301 ± 0.022 mPa·s and 1.303 ± 0.022 mPa·s
373.15 K, 7600 kPa
  viscosity: 1.342 ± 0.023 mPa·s and 1.341 ± 0.023 mPa·s
373.15 K, 7610 kPa
  viscosity: 1.341 ± 0.023 mPa·s
373.15 K, 10090 kPa
  viscosity: 1.375 ± 0.024 mPa·s
373.15 K, 10130 kPa
  viscosity: 1.374 ± 0.023 mPa·s
373.15 K, 15060 kPa
  viscosity: 1.441 ± 0.025 mPa·s
373.15 K, 15070 kPa
  viscosity: 1.443 ± 0.025 mPa·s
373.15 K, 20220 kPa
  viscosity: 1.518 ± 0.026 mPa·s
373.15 K, 20230 kPa
  viscosity: 1.518 ± 0.026 mPa·s
373.15 K, 20250 kPa
  viscosity: 1.516 ± 0.026 mPa·s
373.15 K, 29920 kPa
  viscosity: 1.669 ± 0.028 mPa·s
373.15 K, 29980 kPa
  viscosity: 1.667 ± 0.028 mPa·s
373.15 K, 30000 kPa
  viscosity: 1.667 ± 0.028 mPa·s
373.15 K, 50030 kPa
  viscosity: 1.976 ± 0.033 mPa·s [middle of 4 runs]
373.15 K, 65350 kPa
  viscosity: 2.231 ± 0.037 mPa·s and 2.229 ± 0.037 mPa·s
